Key:
[1] = Elimination half life in Rattus norvegicus Sprague-Dawley (rat) at 9 mg/kg, administered intramuscularly; type: ADME, organism-based; parameters: dose 9 mg/kg, route intramuscular; settings: in vivo, im, read-out: beta t1/2 (converted)
[2] = AUC (0 to infinity) in Rattus norvegicus Sprague-Dawley (rat) at 9 mg/kg, administered intramuscularly; type: ADME, organism-based, Plasma; parameters: time infinity, dose 9 mg/kg, route intramuscular; settings: Sprague-Dawley, plasma, im
[3] = test system: Rattus norvegicus; test: Dose normalized AUC in Rattus norvegicus Sprague-Dawley (rat) at 9 mg/kg, administered intramuscularly; type: ADME, organism-based; parameters: dose 9 mg/kg, route intramuscular; settings: in vivo, im
[4] = Tmax in Rattus norvegicus Sprague-Dawley (rat) at 9 mg/kg, administered intramuscularly; type: ADME, organism-based; parameters: dose 9 mg/kg, route intramuscular; settings: in vivo, im
[5] = Cmax in Rattus norvegicus Sprague-Dawley (rat) at 9 mg/kg, administered intramuscularly; type: ADME, organism-based; parameters: dose 9 mg/kg, route intramuscular; settings: in vivo, im
[6] = AUC (0 to infinity) in Macaca mulatta (Rhesus monkey) at 50 mg/kg, po; type: ADME, organism-based, Plasma; parameters: time infinity, dose 50 mg/kg, route oral; settings: plasma
[7] = test system: Rhesus monkey; test: Dose normalized AUC in Macaca mulatta (Rhesus monkey) at 50 mg/kg, po; type: ADME, organism-based; parameters: dose 50 mg/kg, route oral; settings: in vivo
[8] = Tmax in Macaca mulatta (Rhesus monkey) at 50 mg/kg, po; type: ADME, organism-based; parameters: dose 50 mg/kg, route oral; settings: in vivo
[9] = Cmax in Macaca mulatta (Rhesus monkey) at 50 mg/kg, po; type: ADME, organism-based; parameters: dose 50 mg/kg, route oral; settings: in vivo
[10] = test system: Rattus norvegicus; test: Volume of distribution in Rattus norvegicus Sprague-Dawley (rat) at 9 mg/kg, po; type: ADME, organism-based; parameters: dose 9 mg/kg, route oral; settings: in vivo
[11] = Clearance in Rattus norvegicus Sprague-Dawley (rat) at 9 mg/kg, po; type: ADME, organism-based; parameters: dose 9 mg/kg, route oral; settings: Sprague-Dawley, in vivo
[12] = Mean residence time in Rattus norvegicus Sprague-Dawley (rat) at 9 mg/kg, po; type: ADME, organism-based; parameters: dose 9 mg/kg, route oral; settings: in vivo
[13] = Elimination half life in Rattus norvegicus Sprague-Dawley (rat) at 9 mg/kg, po; type: ADME, organism-based; parameters: dose 9 mg/kg, route oral; settings: in vivo, read-out: beta t1/2 (converted)
[14] = test system: Rattus norvegicus; test: Dose normalized AUC in Rattus norvegicus Sprague-Dawley (rat) at 9 mg/kg, po; type: ADME, organism-based; parameters: dose 9 mg/kg, route oral; settings: in vivo
[15] = AUC (0 to infinity) in Rattus norvegicus Sprague-Dawley (rat) at 9 mg/kg, po; type: ADME, organism-based, Plasma; parameters: time infinity, dose 9 mg/kg, route oral; settings: Sprague-Dawley, plasma
[16] = Tmax in Rattus norvegicus Sprague-Dawley (rat) at 9 mg/kg, po; type: ADME, organism-based; parameters: dose 9 mg/kg, route oral; settings: in vivo
[17] = Cmax in Rattus norvegicus Sprague-Dawley (rat) at 9 mg/kg, po; type: ADME, organism-based; parameters: dose 9 mg/kg, route oral; settings: in vivo
[18] = Volume of distribution in Rattus norvegicus Sprague-Dawley (rat) at 2 mg/kg, iv; type: ADME, organism-based; parameters: dose 2 mg/kg, route intravenous; settings: in vivo
[19] = Clearance in Rattus norvegicus Sprague-Dawley (rat) at 2 mg/kg, iv; type: ADME, organism-based; parameters: dose 2 mg/kg, route intravenous; settings: Sprague-Dawley, in vivo
[20] = Mean residence time in Rattus norvegicus Sprague-Dawley (rat) at 2 mg/kg, iv; type: ADME, organism-based; parameters: dose 2 mg/kg, route intravenous; settings: in vivo
[21] = Elimination half life in Rattus norvegicus Sprague-Dawley (rat) at 2 mg/kg, iv; type: ADME, organism-based; parameters: dose 2 mg/kg, route intravenous; settings: in vivo, read-out: beta t1/2 (converted)
[22] = test system: Rattus norvegicus; test: Dose normalized AUC in Rattus norvegicus Sprague-Dawley (rat) at 2 mg/kg, iv; type: ADME, organism-based; parameters: dose 2 mg/kg, route intravenous; settings: in vivo
[23] = AUC (0 to infinity) in Rattus norvegicus Sprague-Dawley (rat) at 2 mg/kg, iv; type: ADME, organism-based, Plasma; parameters: time infinity, dose 2 mg/kg, route intravenous; settings: Sprague-Dawley, plasma
[24] = test system: Rattus norvegicus; test: Volume of distribution in Rattus norvegicus Sprague-Dawley (rat) at 30 mg/kg, po; type: ADME, organism-based; parameters: dose 30 mg/kg, route oral; settings: in vivo
[25] = Elimination half life in Rattus norvegicus Sprague-Dawley (rat) at 30 mg/kg, po; type: ADME, organism-based; parameters: dose 30 mg/kg, route oral; settings: in vivo, read-out: beta t1/2 (converted)
[26] = Mean residence time in Rattus norvegicus Sprague-Dawley (rat) at 30 mg/kg, po; type: ADME, organism-based; parameters: dose 30 mg/kg, route oral; settings: in vivo
[27] = AUC (0 to infinity) in Rattus norvegicus Sprague-Dawley (rat) at 30 mg/kg, po; type: ADME, organism-based, Plasma; parameters: time infinity, dose 30 mg/kg, route oral; settings: Sprague-Dawley, plasma
[28] = test system: Rattus norvegicus; test: Dose normalized AUC in Rattus norvegicus Sprague-Dawley (rat) at 30 mg/kg, po; type: ADME, organism-based; parameters: dose 30 mg/kg, route oral; settings: in vivo
[29] = Tmax in Rattus norvegicus Sprague-Dawley (rat) at 30 mg/kg, po; type: ADME, organism-based; parameters: dose 30 mg/kg, route oral; settings: in vivo
[30] = test system: Rattus norvegicus; test: Volume of distribution in Rattus norvegicus Sprague-Dawley (rat) at 17.5 mg/kg, po; type: ADME, organism-based; parameters: dose 17.5 mg/kg, route oral; settings: in vivo
[31] = Cmax in Rattus norvegicus Sprague-Dawley (rat) at 30 mg/kg, po; type: ADME, organism-based; parameters: dose 30 mg/kg, route oral; settings: in vivo
[32] = Clearance in Rattus norvegicus Sprague-Dawley (rat) at 17.5 mg/kg, po; type: ADME, organism-based; parameters: dose 17.5 mg/kg, route oral; settings: Sprague-Dawley, in vivo
[33] = Elimination half life in Rattus norvegicus Sprague-Dawley (rat) at 17.5 mg/kg, po; type: ADME, organism-based; parameters: dose 17.5 mg/kg, route oral; settings: in vivo, read-out: beta t1/2 (converted)
[34] = Mean residence time in Rattus norvegicus Sprague-Dawley (rat) at 17.5 mg/kg, po; type: ADME, organism-based; parameters: dose 17.5 mg/kg, route oral; settings: in vivo
[35] = test system: Rattus norvegicus; test: Dose normalized AUC in Rattus norvegicus Sprague-Dawley (rat) at 17.5 mg/kg, po; type: ADME, organism-based; parameters: dose 17.5 mg/kg, route oral; settings: in vivo
[36] = Tmax in Rattus norvegicus Sprague-Dawley (rat) at 17.5 mg/kg, po; type: ADME, organism-based; parameters: dose 17.5 mg/kg, route oral; settings: in vivo
[37] = AUC (0 to infinity) in Rattus norvegicus Sprague-Dawley (rat) at 17.5 mg/kg, po; type: ADME, organism-based, Plasma; parameters: time infinity, dose 17.5 mg/kg, route oral; settings: Sprague-Dawley, plasma
[38] = Cmax in Rattus norvegicus Sprague-Dawley (rat) at 17.5 mg/kg, po; type: ADME, organism-based; parameters: dose 17.5 mg/kg, route oral; settings: in vivo
[39] = test system: Rattus norvegicus; test: Volume of distribution in Rattus norvegicus Sprague-Dawley (rat) at 30 mg/kg, administered intramuscularly; type: ADME, organism-based; parameters: dose 30 mg/kg, route intramuscular; settings: in vivo, im
[40] = Mean residence time in Rattus norvegicus Sprague-Dawley (rat) at 30 mg/kg, administered intramuscularly; type: ADME, organism-based; parameters: dose 30 mg/kg, route intramuscular; settings: in vivo, im
[41] = Clearance in Rattus norvegicus Sprague-Dawley (rat) at 30 mg/kg, administered intramuscularly; type: ADME, organism-based; parameters: dose 30 mg/kg, route intramuscular; settings: Sprague-Dawley, in vivo, im

Compound: CCO[C@H]1O[C@@H]2O[C@@]3(C)CC[C@H]4[C@H](C)CC[C@@H]([C@H]1C)[C@@]24OO3 [ARTEMOTIL]
- half-life [1]: 28.5 h
- AUC(0-inf) [2]: 1180 ng·h/mL
- AUC/dose [3]: 187.8 ng·h/mL
- Tmax [4]: 0.333 h
- Cmax [5]: 39.8 ng/mL
- AUC(0-inf) [6]: 8.5 ng·h/mL
- AUC/dose [7]: 0.2 ng·h/mL
- Tmax [8]: 0.583 h
- Cmax [9]: 1.7 ng/mL
- Vd [10]: 770.8 L/kg
- CL/F [11]: 2120 mL/min/kg
- MRT [12]: 6.7 h
- half-life [13]: 4.2 h
- AUC/dose [14]: 7.4 ng·h/mL
- AUC(0-inf) [15]: 46.8 ng·h/mL
- Tmax [16]: 5 min
- Cmax [17]: 10.3 ng/mL
- Vd [18]: 9.3 L/kg
- clearance [19]: 127 mL/min/kg
- MRT [20]: 0.9 h
- half-life [21]: 0.85 h
- AUC/dose [22]: 132 ng·h/mL
- AUC(0-inf) [23]: 185 ng·h/mL
- Vd [24]: 3024.2 L/kg
- half-life [25]: 2.8 h
- MRT [26]: 3.4 h
- AUC(0-inf) [27]: 25.6 ng·h/mL
- AUC/dose [28]: 1.2 ng·h/mL
- Tmax [29]: 5 min
- Vd [30]: 1965.9 L/kg
- Cmax [31]: 8.1 ng/mL
- CL/F [32]: 5060 mL/min/kg
- half-life [33]: 4.5 h
- MRT [34]: 6.9 h
- AUC/dose [35]: 2.8 ng·h/mL
- Tmax [36]: 5 min
- AUC(0-inf) [37]: 33.9 ng·h/mL
- Cmax [38]: 8.1 ng/mL
- Vd [39]: 1660.6 L/kg
- MRT [40]: 44.2 h
- CL/F [41]: 762 mL/min/kg
